Assay results as given in the NIST ThermoML archive (doi:10.1021/acs.jced.8b01146).
Values joined by “and” are separate entries in the source; they are usually repeats but may differ in a detail not shown here. Equal values may be shown once.

Tests used:
[1] = xn = mol fraction of the nth substance listed; settings: 100 kPa, Liquid, Vibrating tube method
[2] = excess molar enthalpy (molar enthalpy of mixing); xn = mol fraction of the nth substance listed; settings: 100 kPa, Liquid, Calvet calorimetry

CCC1CCC(=O)O1 (stereo not given) [2(3H)-furanone, 5-ethyldihydro-] + O
Settings	excess molar enthalpy, [2]	mass density, [1]
288.15 K, x1 = 0.000808	-0.00462 kJ/mol and -0.00461 kJ/mol	999.463 kg/m3 and 999.462 kg/m3
288.15 K, x1 = 0.001615	-0.00906 kJ/mol	999.823 kg/m3
288.15 K, x1 = 0.001616	-0.00907 kJ/mol	999.824 kg/m3
288.15 K, x1 = 0.002421	-0.0135 kJ/mol	1000.19 kg/m3
288.15 K, x1 = 0.002422	-0.0135 kJ/mol	1000.19 kg/m3
288.15 K, x1 = 0.003226	-0.0175 kJ/mol	1000.55 kg/m3 and 1000.54 kg/m3
288.15 K, x1 = 0.004029	-0.0216 kJ/mol and -0.0215 kJ/mol	1000.9 kg/m3
288.15 K, x1 = 0.004831	-0.0254 kJ/mol	1001.26 kg/m3
288.15 K, x1 = 0.004832	-0.0254 kJ/mol	1001.26 kg/m3
298.15 K, x1 = 0.000808	-0.00312 kJ/mol and -0.00311 kJ/mol	997.357 kg/m3 and 997.355 kg/m3
298.15 K, x1 = 0.001615	-0.00612 kJ/mol	997.666 kg/m3
298.15 K, x1 = 0.002421	-0.00898 kJ/mol	997.974 kg/m3
298.15 K, x1 = 0.002422	-0.00898 kJ/mol	997.975 kg/m3
298.15 K, x1 = 0.003226	-0.0116 kJ/mol	998.276 kg/m3
298.15 K, x1 = 0.004029	-0.0142 kJ/mol	998.58 kg/m3
298.15 K, x1 = 0.004831	-0.0167 kJ/mol	998.888 kg/m3
298.15 K, x1 = 0.004832	-0.0168 kJ/mol	998.888 kg/m3
308.15 K, x1 = 0.000809	-0.00165 kJ/mol	994.296 kg/m3
308.15 K, x1 = 0.001616	-0.00317 kJ/mol	994.558 kg/m3
308.15 K, x1 = 0.001617	-0.00319 kJ/mol	994.559 kg/m3
308.15 K, x1 = 0.002422	-0.00458 kJ/mol	994.819 kg/m3
308.15 K, x1 = 0.002423	-0.00459 kJ/mol	994.819 kg/m3
308.15 K, x1 = 0.003227	-0.00588 kJ/mol	995.082 kg/m3
308.15 K, x1 = 0.003228	-0.00586 kJ/mol	995.075 kg/m3
308.15 K, x1 = 0.004031	-0.00706 kJ/mol	995.334 kg/m3
308.15 K, x1 = 0.004032	-0.00708 kJ/mol	995.334 kg/m3
308.15 K, x1 = 0.004834	-0.00808 kJ/mol	995.586 kg/m3
308.15 K, x1 = 0.004835	-0.00822 kJ/mol	995.586 kg/m3
318.15 K, x1 = 0.000808	-0.000206 kJ/mol	990.434 kg/m3
318.15 K, x1 = 0.001615	-0.000296 kJ/mol	990.653 kg/m3
318.15 K, x1 = 0.001616	-0.000298 kJ/mol	990.654 kg/m3
318.15 K, x1 = 0.002421	-0.000289 kJ/mol	990.873 kg/m3
318.15 K, x1 = 0.002422	-0.000284 kJ/mol	990.873 kg/m3
318.15 K, x1 = 0.003226	-0.000169 kJ/mol	991.088 kg/m3
318.15 K, x1 = 0.003227	-0.000179 kJ/mol	991.089 kg/m3
318.15 K, x1 = 0.004029	3.4e-05 kJ/mol	991.301 kg/m3
318.15 K, x1 = 0.00403	6.3e-05 kJ/mol	991.301 kg/m3
318.15 K, x1 = 0.004832	0.00036 kJ/mol	991.512 kg/m3
318.15 K, x1 = 0.004833	0.000377 kJ/mol	991.512 kg/m3

CC1CCCC(=O)O1 (stereo not given) [2H-pyran-2-one, tetrahydro-6-methyl-] + O
Settings	excess molar enthalpy, [2]	mass density, [1]
288.15 K, x1 = 0.001653	-0.0143 kJ/mol	999.935 kg/m3
288.15 K, x1 = 0.002149	-0.0183 kJ/mol	1000.17 kg/m3
288.15 K, x1 = 0.002478	-0.0211 kJ/mol	1000.35 kg/m3
288.15 K, x1 = 0.002643	-0.0224 kJ/mol	1000.42 kg/m3
288.15 K, x1 = 0.003302	-0.0276 kJ/mol and -0.0279 kJ/mol	1000.74 kg/m3 and 1000.76 kg/m3
288.15 K, x1 = 0.004124	-0.0342 kJ/mol	1001.15 kg/m3
288.15 K, x1 = 0.004945	-0.0407 kJ/mol	1001.54 kg/m3
298.15 K, x1 = 0.001158	-0.0081 kJ/mol	997.57 kg/m3
298.15 K, x1 = 0.001653	-0.0114 kJ/mol	997.788 kg/m3
298.15 K, x1 = 0.002147	-0.0147 kJ/mol	998.009 kg/m3
298.15 K, x1 = 0.002641	-0.018 kJ/mol	998.225 kg/m3
298.15 K, x1 = 0.0033	-0.0223 kJ/mol	998.509 kg/m3
298.15 K, x1 = 0.003306	-0.0226 kJ/mol	998.52 kg/m3
298.15 K, x1 = 0.003307	-0.0224 kJ/mol	998.507 kg/m3
298.15 K, x1 = 0.004125	-0.0277 kJ/mol	998.876 kg/m3
298.15 K, x1 = 0.004129	-0.028 kJ/mol	998.875 kg/m3
298.15 K, x1 = 0.004131	-0.0278 kJ/mol	998.861 kg/m3
298.15 K, x1 = 0.004946	-0.0331 kJ/mol	999.23 kg/m3
298.15 K, x1 = 0.004951	-0.0329 kJ/mol	999.209 kg/m3
298.15 K, x1 = 0.004953	-0.0327 kJ/mol	999.206 kg/m3
308.15 K, x1 = 0.001656	-0.00905 kJ/mol	994.712 kg/m3
308.15 K, x1 = 0.002482	-0.0132 kJ/mol	995.04 kg/m3
308.15 K, x1 = 0.003307	-0.0171 kJ/mol and -0.0174 kJ/mol	995.379 kg/m3 and 995.363 kg/m3
308.15 K, x1 = 0.00413	-0.0214 kJ/mol	995.684 kg/m3
308.15 K, x1 = 0.004131	-0.0212 kJ/mol	995.714 kg/m3
308.15 K, x1 = 0.004953	-0.0252 kJ/mol	995.986 kg/m3
308.15 K, x1 = 0.004954	-0.0252 kJ/mol	996.02 kg/m3
318.15 K, x1 = 0.001655	-0.00615 kJ/mol and -0.0062 kJ/mol	990.83 kg/m3 and 990.824 kg/m3
318.15 K, x1 = 0.00248	-0.0092 kJ/mol	991.131 kg/m3
318.15 K, x1 = 0.002481	-0.00925 kJ/mol	991.124 kg/m3
318.15 K, x1 = 0.003305	-0.0121 kJ/mol	991.433 kg/m3
318.15 K, x1 = 0.003306	-0.0123 kJ/mol	991.423 kg/m3
318.15 K, x1 = 0.004127	-0.0151 kJ/mol	991.726 kg/m3
318.15 K, x1 = 0.004129	-0.0152 kJ/mol	991.723 kg/m3
318.15 K, x1 = 0.004948	-0.018 kJ/mol	992.021 kg/m3
318.15 K, x1 = 0.004952	-0.0181 kJ/mol	992.018 kg/m3
